Results as given in patent US6974867B2, “Compositions and methods for treating neoplastic disease using chemotherapy and radiation sensitizers” (Chiron Corporation, priority 2000, dated 2005).

What was measured:
KIAA0175 mRNA = assay: Northern analysis of KIAA0175 mRNA after anti-sense oligonucleotide transfection; assay type: cell-based, human; conditions: HT1080 cells; for level of KIAA0175 mRNA expression: 100 nM oligonucleotide, Northern analysis; for KIAA0175 mRNA expression over time: 24 to 72 hours after oligonucleotide administration
Protocol: HT 1080 cells express endogenous KIAA0175. These cells were transfected with either the FITC (negative control) or AKT1 (positive control) oligonucleotides), 1182, or 545 oligonucleotides. Briefly, 100 nM of the respective anti-sense oligonucleotide was mixed with lipitoid 1 transfection reagent (Huang et al., Chemistry and Biology 5(6):346-354 (1998)) in a 1:3 volume to volume ratio in OPTI-MEM (GibcoBRL). The mixture was added to the HT1080 cells in complete medium (EMEM, 10% heat inactivated fetal bovine serum (FBS), 2 mM L-Glutamine, 100 U/ml Penicillin, and […] Streptomycin) and the cells were incubated at 37° C. for ^˜4-5 hours in the presence of the anti-sense oligonucleotides before changing to fresh complete medium. Total RNA was extracted at day 1 or 24, 48, or 72 hours following transfection and mRNA levels of KIAA0175 were detected by Northern analysis. 20 μg of total RNA were subjected to electrophoresis on a denaturing agarose gel. RNA was transferred to nitrocellulose and KIAA0175 mRNA was detected by probing with a ^32P-labeled, 0.7 kb KIAA0175 cDNA fragment. To control for equal loading of individual lanes, the blot was stripped of the KIAA0175 probe and re-probed with a ^32P-labeled G3PDH cDNA probe obtained from Clontech.

[1] = system: Breast Cancer Cell Line MDA-MB-231; assay: LDH cytotoxicity assay, breast cancer cell line; assay type: cell-based
Protocol: (§1) The effect of KIAA0175 anti-sense molecules on cell sensitivity to chemotherapeutic drugs was tested on several cell lines using the lactate dehydrogenase (LDH) cytotoxicity assay essentially as follows:
(§2) Day 1: Cells were seeded in 4 separate 96 well plates, typically 5000 cells/well and incubated at 37° C. and 5% CO2.
(§3) Day 2: Cells were transfected with the KIA175-1182 and KIA175-545 anti-sense oligonucleotides (SEQ ID NOs:5 and 1, respectively) as well as the reverse complement controls, RC1182 and RC545 (SEQ ID NOs:6 and 2, respectively) essentially as described in Example 4, with and without drug. One plate (day 0) was left untransfected as a seeding control.
(§4) The transfection was carried out using a lipid vehicle for delivery as described in WO 01/16306, hereby incorporated in its entirety. Briefly, the transfection used agents known as “lipitoids” and “cholesteroids”, described, for example, in PCT publications WO 01/16306, WO 98/06437 and WO 99/08711, based on U.S. Ser. No. 60/023,867, 60/054,743, and 09/132,808, which are also hereby incorporated by reference. These lipid-cationic peptoid conjugates are shown in these references to be effective reagents for the delivery of plasmid DNA to cells in vitro. Any of the carriers described in the above-referenced applications are suitable for use in transfection of the oligonucleotides described herein.
(§5) Depending on the cell type, different lipid vehicles were used for different lengths of time for transfection. […] The transfection was carried out in complete medium and the final anti-sense oligonucleotide concentration was 300 nM per well. In the wells with drug, the drug was added to the culture at the beginning of the transfection.
(§6) Starting on Day 3: Cells were recovered, 1 plate/day and release of LDH into the supernatant was measured using a kit from Roche according to manufacturer's instructions (Roche Diagnostics, Basel, Switzerland) (data labeled as day 1, 2, 3).
(§7) For each sample, the data are expressed as a ratio of the level of LDH in wells containing cells transfected with anti-sense (AS) over the level of LDH in wells containing cells transfected with the reverse complement controls (RC) (ie:AS/RC). Thus, cells that become sensitized to drug will die and release LDH into the supernatant. An increase in the ratio signifies increased cell death and thus, higher levels of LDH in the media. A ratio higher than 1.5 signifies an effect of the anti-sense over the reverse complement control.

[2] = system: Normal Breast Epithelial Cell Line 184B5; assay: LDH cytotoxicity assay, normal breast epithelial cell line; assay type: cell-based; conditions: for effect on cell death (LDH): 184B5 normal breast epithelial cell line
Protocol: as §1, §2, §3, §4, §5, §6, §7

HCT116 cells = assay: Colony (Crystal Violet) viability assay, sensitization to γ-irradiation and hydroxyurea; assay type: cell-based; conditions: 11 days of culture, compared to RC-treated cells
Protocol: γ-irradiation treatment was performed as follows: On day one, HCT116 cells were transfected with either the KIAA0175 anti-sense molecule No. 545 (545) or with the 545 reverse control molecule (RC) and plated onto tissue-culture plates. On day three, one plate each of 545 and RC transfected cells were treated with γ-irradiation (2, 4 or 8 Gy) and cultured an additional 2 hours. The γ-irradiation treated cells as well as untreated control HCT116 cells were trypsinized, counted and seeded in triplicate onto 6-well tissue culture plates to a density of 1000 cells per well. After 11 days of culture, the cells were assayed for viability by staining with Crystal Violet. Total numbers of cell colonies were then counted.
Hydroxyurea treatment was performed as follows: On day one, HCT116 cells were transfected with either the KIAA0175 anti-sense molecule No. 545 (545) or with the 545 reverse control molecule (RC) and plated onto tissue-culture plates. The following day (day two), one plate each of 545 and RC transfected cells were treated with hydroxyurea (1 mM final concentration) and cultured an additional 24 hours. On day three, the hydroxyurea treated cells as well as untreated control HCT116 cells were trypsinized, counted and seeded in triplicate onto 6-well tissue culture plates to a density of 1000 cells per well. […] Total numbers of cell colonies were then counted.

HT1080 cells = assay: Cell cycle arrest upon γ-irradiation in transfected HT1080 cells; assay type: cell-based, human
Protocol: Because both p53 and p21 are involved in the G1 to S phase cell cycle transition, the following experiments were performed in order to assess the effect of KIAA0175 anti-sense molecules on cell cycle regulation.
Table 1 discloses the percentage of HT1080 cells in each stage of the cell cycle at various times following exposure to γ-irradiation. By 24 hours, cells were arrested in both the G1 and G2 phases as evidenced by the elevated percentage of cells in G0/G1 and G2/M phases as compared to the diminished percentage of cells in the S phase.
Table 2 discloses the effect of KIAA0175 anti-sense molecules on γ-irradiation induced cell-cycle arrest. In cells transfected with anti-sense molecules, there was a reduction in the accumulation of cells in the G1 phase and a minimized reduction in the number of cells in the S phase as compared to cells transfected with a “reverse-control” anti-sense molecule as control.

p53 [3] = assay: Western analysis of p53 after γ-irradiation of transfected HT1080 cells; assay type: cell-based, human; conditions: 10 Gy γ-irradiation 24 hours after transfection
Protocol: (§8) HT1080 cells expressing endogenous KIAA0175 were transfected with the KIAA0175 anti-sense oligonucleotide (1182) and the corresponding reverse control oligonucleotide (RC1182). After culture for 24-hours, the transfected cells were treated with 10 Gy of γ-irradiation. At various times after irradiation, cells were harvested and lysates prepared and subjected to SDS-PAGE. p53, Erk2, and p21 proteins were detected by Western analysis.

KIAA0175 [4] = assay: Western analysis of KIAA0175 protein level after anti-sense transfection, HT1080 cells; assay type: cell-based, human
Source text: (§9) In separate experiments, either HT1080 or HCT116 cells expressing endogenous KIAA0175 and p53 were transfected with either FITC, KIAA0175 anti-sense oligonucleotides (i.e. 545 or 1182), or the corresponding reverse control oligonucleotides (RC or RC545). Total cell lysates were fractionated by SDS-polyacrylamide gel electrophoresis and transferred to nitrocellulose membranes. Specific proteins were detected by Western analysis using antibodies to either KIAA0175 (rabbit polyclonal antisera), p53, Erk2, or p21 antibodies as indicated. Antibodies against p53, p21 and Erk2 were obtained from Santa Cruz Biotechnology, Inc. (Santa Cruz, Calif.).

p53 [5] = assay: Western analysis of p53 protein level after anti-sense transfection, HT1080 cells; assay type: cell-based, human
Source text: as §9

p21 = assay: Western analysis of p21 after γ-irradiation of transfected HT1080 cells; assay type: cell-based, human; conditions: 10 Gy γ-irradiation 24 hours after transfection
Protocol: as §8

KIAA0175 [6] = assay: KIAA0175 protein levels after exposure of cells to hydroxyurea (Western); conditions: recombinant HA-fusion protein or endogenously expressed
[7] = MDA-MB-231, Day 0 (untransfected seeding control plate), 300 nM oligonucleotide
[8] = MDA-MB-231, Day 1, 300 nM oligonucleotide, ratio higher than 1.5 signifies an effect
[9] = MDA-MB-231, Day 2, 300 nM oligonucleotide, ratio higher than 1.5 signifies an effect
[10] = MDA-MB-231, Day 3, 300 nM oligonucleotide, ratio higher than 1.5 signifies an effect
[11] = MDA-MB-231 metastatic breast cancer cells
[12] = 184B5, Day 0 (untransfected seeding control plate), 300 nM oligonucleotide
[13] = 184B5, Day 1, 300 nM oligonucleotide, ratio higher than 1.5 signifies an effect
[14] = 184B5, Day 2, 300 nM oligonucleotide, ratio higher than 1.5 signifies an effect
[15] = 184B5, Day 3, 300 nM oligonucleotide, ratio higher than 1.5 signifies an effect

AKT: positive control oligonucleotide 5′-CCATAGTGAGGTTGCATCTGGTGCC-3′ (listed as DNA, chemistry not given here) [reference compound]
level of KIAA0175 mRNA expression (KIAA0175 mRNA): ineffective in reducing KIAA0175 mRNA expression

KIA175-545: KIAA0175 anti-sense oligonucleotide 5′-GAGGTCCCTGTGAGCATAGCCCTGG-3′ (listed as DNA, chemistry not given here)
LDH ratio AS/RC [1, 7]: 0.84 | LDH ratio AS/RC [1, 8]: 1.05 | LDH ratio AS/RC [1, 9]: 1.37 | LDH ratio AS/RC [1, 10]: 1.62 | sensitization to the effects of Campthesin (CPT) [1, 11]: sensitizes | sensitization to the effects of Cisplatin [1, 11]: sensitizes | sensitization to the effects of Doxorubicin (Doxo) [1, 11]: did not appear to sensitize | LDH ratio AS/RC [2, 12]: 0.0000 | LDH ratio AS/RC [2, 13]: 1.1152 | LDH ratio AS/RC [2, 14]: 1.1258 | LDH ratio AS/RC [2, 15]: 1.2934 | effect on cell death (LDH) [2]: neither KIA175-1182 nor KIA175-545 has an effect | sensitivity to hydroxyurea (number of viable colonies) (HCT116 cells; hydroxyurea 1 mM 24 hours): increased the sensitivity of HCT116 cells to hydroxyurea | sensitivity to γ-irradiation (number of viable colonies) (HCT116 cells; γ-irradiation 2, 4 or 8 Gy): increased the sensitivity of HCT116 cells to γ-irradiation | level of KIAA0175 mRNA expression (KIAA0175 mRNA): effective in reducing the level of KIAA0175 mRNA expression | KIAA0175 mRNA expression over time (KIAA0175 mRNA): increased gradually

RC1182: reverse control oligonucleotide 5′-AGGACACCTGTTCGGTCACGATGGG-3′ (listed as DNA, chemistry not given here) [reference compound]
percentage of cells in G0-G1 (HT1080 cells; + γ-irradiation): 52.5% | percentage of cells in G2-M (HT1080 cells; + γ-irradiation): 32.6% | percentage of cells in S (HT1080 cells; + γ-irradiation): 14.9% | percentage of cells in G0-G1 (HT1080 cells; − γ-irradiation): 47.6% | percentage of cells in G2-M (HT1080 cells; − γ-irradiation): 19.4% | percentage of cells in S (HT1080 cells; − γ-irradiation): 33% | level of KIAA0175 mRNA expression (KIAA0175 mRNA): ineffective in reducing KIAA0175 mRNA expression | γ-irradiation induced increase in p53 protein level (p53 [3]): increase in p53 protein level observed

RC736: reverse control oligonucleotide 5′-CTCCGTCTACAAACCTCGTACCCGT-3′ (listed as DNA, chemistry not given here) [reference compound]
level of KIAA0175 mRNA expression (KIAA0175 mRNA): ineffective in reducing KIAA0175 mRNA expression

FITC: negative control oligonucleotide 5′-TCTGCTGCTGTCGACAACGAGTGTC-3′ (FITC label, position not given here) [reference compound]
level of KIAA0175 mRNA expression (KIAA0175 mRNA): ineffective in reducing KIAA0175 mRNA expression | KIAA0175 mRNA expression over time (KIAA0175 mRNA): no effect

KIA175-1182: KIAA0175 anti-sense oligonucleotide 5′-GGGTAGCACTGGCTTGTCCACAGGA-3′ (listed as DNA, chemistry not given here)
time of maximal anti-sense activity, KIAA0175 protein (KIAA0175 [4]): 48 h | percentage of cells in G0-G1 (HT1080 cells; + γ-irradiation): 39.3% | percentage of cells in G2-M (HT1080 cells; + γ-irradiation): 42.17% | percentage of cells in S (HT1080 cells; + γ-irradiation): 18.6% | percentage of cells in G0-G1 (HT1080 cells; − γ-irradiation): 47.4% | percentage of cells in G2-M (HT1080 cells; − γ-irradiation): 26.8% | percentage of cells in S (HT1080 cells; − γ-irradiation): 25.7% | LDH ratio AS/RC [1, 7]: 0.76 | LDH ratio AS/RC [1, 8]: 2.04 | LDH ratio AS/RC [1, 9]: 1.67 | LDH ratio AS/RC [1, 10]: 1.52 | LDH ratio AS/RC [2, 12]: 0.0000 | LDH ratio AS/RC [2, 13]: 1.0223 | LDH ratio AS/RC [2, 14]: 0.9065 | LDH ratio AS/RC [2, 15]: 1.0663 | effect on cell death (LDH) [2]: neither KIA175-1182 nor KIA175-545 has an effect | level of KIAA0175 mRNA expression (KIAA0175 mRNA): effective in reducing the level of KIAA0175 mRNA expression | KIAA0175 mRNA expression over time (KIAA0175 mRNA): increased gradually | time of maximal anti-sense activity, p53 protein (p53 [5]): 48 h | p21 protein levels after γ-irradiation (p21): reduction of p21 protein levels | γ-irradiation induced increase in p53 protein level (p53 [3]): blocked the γ-irradiation induced increase in p53 protein level

KIA175-736: KIAA0175 anti-sense oligonucleotide 5′-TGCCCATGCTCCAAACATCTGCCTC-3′ (listed as DNA, chemistry not given here)
level of KIAA0175 mRNA expression (KIAA0175 mRNA): effective in reducing the level of KIAA0175 mRNA expression

NC(=O)NO [hydroxyurea]
KIAA0175 protein levels (KIAA0175 [6]): caused an increase in KIAA0175 protein levels
